Source: patent US20260097029A1, “Tetrahydroquinoline Compounds As Antitumor Agents” (priority 2022, published 2026)
Like-named read-outs stand apart in the source and are kept apart here.

Columns and labels:
Assay type in all cases: cell-based
[1] = system: ALT-positive, telomerase-positive, ALT- and telomerase-positive, and normal cell lines; assay: Proliferation and cell death across panel of ALT-positive, telomerase-positive, ALT- and telomerase-positive and normal cell lines; settings: for toxicity across cell lines (FIG. 5): 0-25 μM, different cell lines
Method: (§1) U2OS cells were treated with compounds 1, 2, 14, and 32 at concentrations of 0, 0.625, 1.25, 2.5, 5, 10, 15, 20 and 25 μM. Cell proliferation (confluency) and cytotoxicity (CellTox™ Green confluency) were assessed using the IncuCyte® live cell imaging platform. Cell death was calculated as a percentage of overall confluency, using CellTox™ Green confluency as a percentage of total cell confluence. Cell toxicity measurements were capped at the time point at which cells reached complete confluency. This was to account for cell death due to over-confluency of cells, rather than as a result of compounds' effects. The same experiments were also performed on a list of ALT-positive, telomerase-positive, ALT- and telomerase-positive, and normal cell lines. For the ALT-positive cell lines GM847, SK—N—FI, HuO9, Saos-2, CAL72, IIICF/c, and HS729 were employed. For the telomerase-positive cells HCT116, HeLa, HT1080, SK—N—Be2, and SK—N-AS, and KELLY were used. For the ALT-positive/telomerase-positive and mortal cell strains GM847 hTERT, MRC-5, and IMR-90 were employed.

U2OS cells [2] = assay: U2OS cytotoxicity / cell death (CellTox Green confluency), IncuCyte; settings: Homo sapiens, read-out: EC50 (concentration that effectively causes 50% of cell death)
Method: as §1

U2OS cells [3] = assay: U2OS cell proliferation (confluency), IncuCyte live cell imaging; settings: for IC50: confluency, read-out: IC50 (concentration of drug that inhibits 50% of cell growth)
Method: as §1

FANCM-BTR interaction = target: T1, FANCM-BTR interaction (Homo sapiens, UniProt Q8IYD8+Q9H9A7); assay: Co-immunoprecipitation with RMI1 antibody in U2OS cells, western blot; settings: treatment at the IC50 concentration, 72 hours
T1 construct: endogenous in cells; host or cells: U2OS
Method: To determine whether the compounds disrupt the FANCM-BTR interaction, co-immunoprecipitation experiments using the RMI1 antibody were performed in the presence and absence of compounds 1, 2, 14, 32, and the already reported compound PIP-199 treatments as well as the scambled, siFANCM and DMSO. This method provides information indicating the direct binding of proteins and is highly specific and simple to perform. U2OS cells were seeded at 50% confluency in 150 cm^2 flasks (BD Falcon). After 24 hours, cells were treated with scrambled, siFANCM and DMSO (0.3%, determined by the maximal DMSO concentration present in drugs) treatments, and 2, 14, 32, PIP-199 treatments at their IC50 concentrations. After 72 hours, cells were washed once with warm PBS, trypsinised for 5 minutes at 37° C., resuspended in media and counted using a Beckman Coulter cell counter. Cells were collected in pellets in Protein Lobind tubes (Eppendorf) by centrifugation at 200×g at 4° C. and supernatant was discarded. […]
The Dynabeads®-Ab-protein complex was washed three times using 200 μL ice cold Lysis Buffer B for each wash. […] The eluates were analysed by western blot and the data was quantitated using ImageJ software (National Institutes of Health). Eluates were expressed as a percentage of their respective lysates to show relative differences between treatments.

IC50 (U2OS cells [3]; Homo sapiens, U2OS) [µM]	IC50 (U2OS cells [3]) [µM]	FANCM levels co-immunoprecipitated with RMI1 (FANCM-BTR interaction)	Compound	toxicity across cell lines (FIG. 5) [1]	EC50 (U2OS cells [2]) [µM]	inhibition of U2OS cell viability (U2OS cells [3]; preliminary cell-based assays)	comparison of IC50 and EC50 values across the panel of cell lines ([1]; ALT-positive vs telomerase-positive, ALT/telomerase-positive and mortal cell lines)
–	–	–	CCN1CCCc2cc(CN(C3CCCC3)S(=O)(=O)c3cccc([N+](=O)[O-])c3)ccc21 [Compound 1, N-cyclopentyl-N-((1-ethyl-1,2,3,4-tetrahydroquinolin-6-yl)methyl)-3-nitrobenzenesulfon-amide]	concentration-dependent toxicity that is partly selective to the ALT cell lines	–	–	–
–	–	–	CCN1CCCc2cc(CN(C3CCCC3)S(=O)(=O)c3ccc(CCOC)cc3)ccc21 [Compound 14, N-cyclopentyl-N-((1-ethyl-1,2,3,4-tetrahydroquinolin-6-yl)methyl)-4-(2-methoxy-ethyl)benzenesulfonamide]	concentration-dependent toxicity that is partly selective to the ALT cell lines	–	–	–
15.5	15.5	decrease in FANCM levels	CCN1CCCc2cc(CN(C3CCCC3)S(=O)(=O)c3ccc(NCc4c[nH]cn4)cc3)ccc21 [Compound 32, 4-(((1H-imidazol-4-yl)methyl)amino)-N-cyclopentyl-N-((1-ethyl-1,2,3,4-tetrahydroquinolin-6-yl)methyl)benzenesulfonamide]	–	1.36	shows inhibition of U2OS cell viability	selective induction of ALT-cell death
